Experimental findings from paper PMC8168755, “Discovery of new VEGFR-2 inhibitors based on bis([1, 2, 4]triazolo)[4,3-a:3',4'-c]quinoxaline derivatives as anticancer agents and apoptosis inducers” (Journal of Enzyme Inhibition and Medicinal Chemistry, 2021) are described below.

Read-outs that look alike come from different tables or passages of the source.

Assay [1] has as its system MCF-7 and HepG2 cell lines. Briefly: In vitro anti-proliferative activity (MTT assay), stated over both cell lines. The conditions noted are these: Homo sapiens, read-out: IC50 values ranging over the two cell lines (MCF-7 and HepG2). It counts as cell-based.
The subject of another assay is HepG2. In words: In vitro anti-proliferative activity (MTT assay), HepG2. As to conditions: read-out: IC50 (µM) HepG2. It counts as cell-based, human. The protocol: (§1) All newly prepared compounds were assessed for their in vitro cytotoxic efficiencies via standard MTT method, against breast cancer (MCF-7) and hepatocellular carcinoma (HepG2) cell lines.
(§2) MTT assay protocol[55–57]^,[74] was applied as described in Supplementary data.
(§3) Experimental of biological testing
(§4) 1. In vitro anti-proliferative activity
(§5) the synthesized compounds.
(§6) oC for 48 h under 5% CO2.
(§7) the synthesized compounds and incubated for 24 h.

The next assay deals with VEGFR-2 (Homo sapiens, UniProt P35968). Briefly: biochemical. The protocol: All the synthesised compounds were tested for their inhibitory activity against VEGFR-2 as described in Supplementary data[75].
Experimental of biological testing […]
2. In vitro VEGFR-2 kinase assay
All the synthesized compounds were tested for its inhibitory activity against VEGFR-2. Human VEGFR-2 ELISA kit (Enzyme-Linked Immunosorbent Assay) was utilized in this test. At first, specific antibody for VEGFR-2 was seeded on a 96-well plate and 100 μL of the standard solution or the tested compound was added, all were incubated at room temperature for 2.5 h. Then washed, 100 μL of the prepared biotin antibody was added, then incubated at room temperature for additional 1 h. and washed. Then, 100 μL of streptavidin solution was added and incubated for 45 min. at room temperature. Washed again, 100 μL of TMB Substrate reagent was added and incubated for 30 min. at room temperature. 50 μL of the stop solution was added, then read at 450 […]
nm immediately. […]

The subject of the next assay is MCF-7. In words: In vitro anti-proliferative activity (MTT assay), MCF-7. It counts as cell-based, human. As to conditions: read-out: IC50 (µM) MCF-7. On the procedure:
as §1, §2, §3, §4, §5, §6, §7

Another assay has as its system BAX. As to conditions: HepG2, 24 h.
A further assay relates to Bcl-2. The conditions noted are these: HepG2, 24 h.
The mark [2] stands for this setting: MTT, range stated for a group of compounds and both cell lines.
[3] abbreviates: Homo sapiens, HepG2, MTT, 24 h treatment, mean ± SD of three separate experiments.
The mark [4] stands for this setting: mean ± SD of three separate experiments.
[5] abbreviates: Homo sapiens, MCF7, MTT, 24 h treatment, mean ± SD of three separate experiments.
The mark [6] stands for this setting: MTT, 24 h treatment, mean ± SD of three separate experiments.
[7] abbreviates: control 1.00, mean ± SEM of three experiments.

VEGFR-2, sequence (P35968 20-1356): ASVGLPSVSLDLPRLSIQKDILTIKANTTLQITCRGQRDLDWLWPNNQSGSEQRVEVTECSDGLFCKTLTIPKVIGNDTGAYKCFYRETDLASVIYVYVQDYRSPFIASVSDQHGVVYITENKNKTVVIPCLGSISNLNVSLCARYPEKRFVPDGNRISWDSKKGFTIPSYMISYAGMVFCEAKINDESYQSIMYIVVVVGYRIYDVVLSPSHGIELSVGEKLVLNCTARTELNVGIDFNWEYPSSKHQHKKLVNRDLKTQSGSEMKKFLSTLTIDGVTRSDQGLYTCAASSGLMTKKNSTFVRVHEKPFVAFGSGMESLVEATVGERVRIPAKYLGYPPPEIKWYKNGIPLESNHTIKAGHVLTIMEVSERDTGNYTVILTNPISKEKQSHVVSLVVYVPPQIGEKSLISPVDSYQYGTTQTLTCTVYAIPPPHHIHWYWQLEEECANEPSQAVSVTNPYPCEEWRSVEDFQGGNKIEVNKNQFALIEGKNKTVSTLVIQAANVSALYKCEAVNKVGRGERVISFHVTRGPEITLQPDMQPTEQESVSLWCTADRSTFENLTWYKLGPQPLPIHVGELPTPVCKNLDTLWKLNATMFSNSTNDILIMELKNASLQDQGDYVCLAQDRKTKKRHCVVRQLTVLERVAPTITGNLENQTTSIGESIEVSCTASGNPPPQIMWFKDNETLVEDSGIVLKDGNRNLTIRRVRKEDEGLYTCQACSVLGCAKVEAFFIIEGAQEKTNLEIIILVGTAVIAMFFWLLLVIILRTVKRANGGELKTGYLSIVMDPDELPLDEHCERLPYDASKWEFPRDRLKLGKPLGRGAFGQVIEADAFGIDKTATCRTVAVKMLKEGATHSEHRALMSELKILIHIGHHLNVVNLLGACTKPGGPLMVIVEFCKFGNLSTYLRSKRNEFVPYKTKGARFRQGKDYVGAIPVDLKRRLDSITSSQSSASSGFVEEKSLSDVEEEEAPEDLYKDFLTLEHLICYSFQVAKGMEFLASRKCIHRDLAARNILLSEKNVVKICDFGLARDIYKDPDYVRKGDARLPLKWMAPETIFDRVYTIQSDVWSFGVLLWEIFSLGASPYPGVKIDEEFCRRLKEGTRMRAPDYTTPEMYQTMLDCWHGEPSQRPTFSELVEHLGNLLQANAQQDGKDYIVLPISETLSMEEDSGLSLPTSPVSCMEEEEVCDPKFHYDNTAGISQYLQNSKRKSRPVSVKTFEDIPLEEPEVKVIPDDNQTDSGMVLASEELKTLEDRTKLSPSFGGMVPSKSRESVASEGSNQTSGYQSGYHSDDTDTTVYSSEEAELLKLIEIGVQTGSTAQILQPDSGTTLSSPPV

Consider `O=C(CSc1nnc2c3nncn3c3ccccc3n12)Nc1ccc(C(=O)Nc2cccc(Cl)c2)cc1` [Compound 23h, 4-(2-(Bis([1,2, 4]triazolo)[4,3-a:3',4'-c]quinoxalin-3-ylthio)acetamido)-N-(3-chlorophenyl)benzamide], for which the IC50 in assay [1] is 15.2 to 48.3 µM; with HepG2 (Homo sapiens, HepG2, 24 h), 22.3 ± 1.8 µM; against VEGFR-2, 11.7 ± 0.9 nM; in the assay on MCF-7 (Homo sapiens, MCF7, 24 h) it was 37.2 ± 3.2 µM.

Take `O=C(CSc1nnc2c3nncn3c3ccccc3n12)Nc1ccc(C(=O)NNC(=O)c2ccccc2Cl)cc1` [Compound 24a, 2-(Bis([1,2, 4]triazolo)[4,3-a:3',4'-c]quinoxalin-3-ylthio)-N-(4–(2-(2-chlorobenzoyl)hydrazine-1-carbonyl)phenyl)acetamide]: the IC50 was 15.2 to 48.3 µM in assay [1] (setting [2]), 34.5 ± 2.8 µM with HepG2 (setting [3]), 23.9 ± 1.9 nM against VEGFR-2 (setting [4]) and 48.3 ± 3.9 µM in the assay on MCF-7 (setting [5]).

On to `CNC(=O)c1cc(Oc2ccc(NC(=O)Nc3ccc(Cl)c(C(F)(F)F)c3)cc2)ccn1` [Sorafenib, sorafenib, reference compound], for which the IC50 amounted to 2.17 ± 0.14 µM in the assay on HepG2 (setting [3]) and 3.51 ± 0.22 µM with MCF-7 (setting [5]).

Turning to `O=C(CSc1nnc2c3nncn3c3ccccc3n12)Nc1ccc(C(=O)NNC(=O)c2ccccc2O)cc1` [Compound 24c, 2-(Bis([1,2, 4]triazolo)[4,3-a:3',4'-c]quinoxalin-3-ylthio)-N-(4–(2-(2-hydroxybenzoyl)hydrazine-1-carbonyl)phenyl)acetamide], the IC50 in assay [1] (setting [2]) is 15.2 to 48.3 µM; with HepG2 (setting [3]), 29.8 ± 2.1 µM; against VEGFR-2 (setting [4]), 20.7 ± 1.6 nM; in the assay with MCF-7 (setting [5]), 40.7 ± 3.7 µM.

As for `O=C(CSc1nnc2c3nncn3c3ccccc3n12)Nc1ccc(C(=O)Nc2cc(Cl)ccc2Cl)cc1` [Compound 23j, 4-(2-(Bis([1,2, 4]triazolo)[4,3-a:3′,4′-c]uinoxaline-3-ylthio)acetamido)-N-(2,5-dichlorophenyl)benzamide], the figures for the IC50 in the assay on HepG2 (setting [6]), against VEGFR-2 and with MCF-7 (setting [6]) were 6.4 ± 0.5 µM, 3.7 ± 0.2 nM and 10.3 ± 0.8 µM, respectively. The “Increase of BAX level” value with BAX (compared to control cells) is on record as 1.65 fold. Besides, in the assay on BAX (setting [7]), the “Protein expression (normalized to β-actin) BAX” value is given as 1.65 ± 0.06. In addition, the “Decrease of Bcl-2 level” value in the assay on Bcl-2 (compared to control cells) is 2.63 fold. Besides, the “Protein expression (normalized to β-actin) Bcl-2” value in the assay with Bcl-2 (setting [7]) turned out to be 0.38 ± 0.03.

`O=C(CSc1nnc2c3nncn3c3ccccc3n12)Nc1ccc(C(=O)Nc2ccc([N+](=O)[O-])cc2O)cc1` [Compound 23n, 4-(2-(Bis([1,2, 4]triazolo)[4,3-a:3′,4′-c]uinoxaline-3-ylthio)acetamido)-N-(2-hydroxy-4-nitrophenyl)benzamide]: the IC50 is 6.4 to 19.4 µM in assay [1] (setting [2]), 12.7 ± 0.9 µM in the assay with HepG2 (setting [3]), 7.4 ± 0.5 nM at VEGFR-2 (setting [4]) and 16.5 ± 1.3 µM with MCF-7 (setting [5]).

Turning to `O=C(CSc1nnc2c3nncn3c3ccccc3n12)Nc1ccc(C(=O)NC2CCCC2)cc1` [Compound 23e, 4-(2-(Bis([1,2, 4]triazolo)[4,3-a:3',4'-c]quinoxalin-3-ylthio)acetamido)-N-cyclopentylbenzamide], the IC50 stood at 74.8 ± 6.9 µM in the assay with HepG2 (setting [3]), 39.8 ± 3.1 nM against VEGFR-2 (setting [4]) and 78.3 ± 6.5 µM with MCF-7 (setting [5]).

With `O=C(CSc1nnc2c3nncn3c3ccccc3n12)Nc1ccc(C(=O)NC2CCCCC2)cc1` [Compound 23f, 4-(2-(Bis([1,2, 4]triazolo)[4,3-a:3',4'-c]quinoxalin-3-ylthio)acetamido)-N-cyclohexylbenzamide], the IC50 with HepG2 (setting [3]) is 70.4 ± 5.8 µM; at VEGFR-2 (setting [4]), 39.5 ± 2.9 nM; with MCF-7 (setting [5]) it was 74.1 ± 6.7 µM.

For the compound `O=C(CSc1nnc2c3nncn3c3ccccc3n12)Nc1ccc(C(=O)Nc2ccc(F)cc2)cc1` [Compound 23k, 4-(2-(Bis([1,2, 4]triazolo)[4,3-a:3′,4′-c]uinoxaline-3-ylthio)acetamido)-N-(4-fluorophenyl)benzamide], the IC50 in the assay with HepG2 (setting [3]) stood at 71.8 ± 6.3 µM; against VEGFR-2 (setting [4]), 49.6 ± 4.1 nM; in the assay on MCF-7 (setting [5]), 68.2 ± 5.2 µM.

`O=C(CSc1nnc2c3nncn3c3ccccc3n12)Nc1ccc(C(=O)Nc2ccc(Cl)cc2)cc1` [Compound 23i, 4-(2-(Bis([1,2, 4]triazolo)[4,3-a:3',4'-c]quinoxalin-3-ylthio)acetamido)-N-(4-chlorophenyl)benzamide] displayed an IC50 against VEGFR-2 (setting [4]) of 9.4 ± 0.7 nM.

For the compound `CCCCNC(=O)c1ccc(NC(=O)CSc2nnc3c4nncn4c4ccccc4n23)cc1` [Compound 23b, 4-(2-(Bis([1,2, 4]triazolo)[4,3-a:3',4'-c]quinoxalin-3-ylthio)acetamido)-N-butylbenzamide], the IC50 amounted to 69.1 ± 6.1 µM in the assay on HepG2 (setting [3]), 71.6 ± 5.2 nM against VEGFR-2 (setting [4]) and 78.9 ± 6.1 µM in the assay on MCF-7 (setting [5]).

As to `CC(C)(C)NC(=O)c1ccc(NC(=O)CSc2nnc3c4nncn4c4ccccc4n23)cc1` [Compound 23d, 4-(2-(Bis([1,2, 4]triazolo)[4,3-a:3',4'-c]quinoxalin-3-ylthio)acetamido)-N-(tert-butyl)benzamide], the IC50 in assay [1] (setting [2]) was 15.2 to 48.3 µM; in the assay on HepG2 (setting [3]) it was 17.5 ± 1.2 µM; against VEGFR-2 (setting [4]), 11.8 ± 0.8 nM; in the assay with MCF-7 (setting [5]), 21.6 ± 1.8 µM.

Turning to `O=C(CSc1nnc2c3nncn3c3ccccc3n12)Nc1ccc(C(=O)Nc2ccccc2O)cc1` [Compound 23l, 4-(2-(Bis([1,2, 4]triazolo)[4,3-a:3′,4′-c]uinoxaline-3-ylthio)acetamido)-N-(2-hydroxyphenyl)benzamide], the IC50 was 11.3 ± 0.7 µM in the assay on HepG2 (setting [6]), 5.8 ± 0.3 nM against VEGFR-2 (setting [4]) and 19.4 ± 1.1 µM with MCF-7 (setting [6]).

As for `CCNC(=O)c1ccc(NC(=O)CSc2nnc3c4nncn4c4ccccc4n23)cc1` [Compound 23a, 4-(2-(Bis([1,2, 4]triazolo)[4,3-a:3',4'-c]quinoxalin-3-ylthio)acetamido)-N-ethylbenzamide], the IC50 in assay [1] (setting [2]) is 6.4 to 19.4 µM; in the assay with HepG2 (setting [3]), 11.3 ± 0.9 µM; at VEGFR-2 (setting [4]), 7.1 ± 0.4 nM; in the assay on MCF-7 (setting [5]), 17.7 ± 1.5 µM.

For the compound `O=C(CSc1nnc2c3nncn3c3ccccc3n12)Nc1ccc(C(=O)NNC(=O)c2cccc(Cl)c2)cc1` [Compound 24b, 2-(Bis([1,2, 4]triazolo)[4,3-a:3',4'-c]quinoxalin-3-ylthio)-N-(4–(2-(3-chlorobenzoyl)hydrazine-1-carbonyl)phenyl)acetamide], the IC50 in assay [1] (setting [2]) is 15.2 to 48.3 µM; with HepG2 (setting [3]), 30.3 ± 2.7 µM; at VEGFR-2 (setting [4]) it was 22.3 ± 1.8 nM; with MCF-7 (setting [5]), 42.7 ± 3.7 µM.

In the case of `CCC(C)NC(=O)c1ccc(NC(=O)CSc2nnc3c4nncn4c4ccccc4n23)cc1` (stereo not drawn) [Compound 23c, 4-(2-(Bis([1,2, 4]triazolo)[4,3-a:3',4'-c]quinoxalin-3-ylthio)acetamido)-N-(sec-butyl)benzamide], the IC50 was 69.8 ± 5.9 µM in the assay with HepG2 (setting [3]), 47.1 ± 4.2 nM on VEGFR-2 (setting [4]) and 76.2 ± 6.9 µM in the assay with MCF-7 (setting [5]).

As to `CC(=O)c1ccc(NC(=O)c2ccc(NC(=O)CSc3nnc4c5nncn5c5ccccc5n34)cc2)cc1` [Compound 23g, N-(4-Acetylphenyl)-4-(2-(bis([1,2, 4]triazolo)[4,3-a:3',4'-c]quinoxalin-3-ylthio)acetamido)benzamide], the IC50 in the assay with HepG2 (setting [3]) was 80.7 ± 7.1 µM; on VEGFR-2 (setting [4]), 62.7 ± 5.7 nM; in the assay with MCF-7 (setting [5]), 81.3 ± 7.4 µM.

`O=C(CSc1nnc2c3nncn3c3ccccc3n12)Nc1ccc(C(=O)Nc2ccc(O)cc2)cc1` [Compound 23m, 4-(2-(Bis([1,2, 4]triazolo)[4,3-a:3′,4′-c]uinoxaline-3-ylthio)acetamido)-N-(4-hydroxyphenyl)benzamide]: the IC50 in assay [1] (setting [2]) was 15.2 to 48.3 µM; in the assay with HepG2 (setting [3]), 15.2 ± 1.2 µM; against VEGFR-2 (setting [4]) it was 9.7 ± 0.7 nM; in the assay on MCF-7 (setting [5]) it was 21.6 ± 1.7 µM.
